Measurements as given in patent US20070004689A1, “Antiangiogenic agents” (priority 2004, published 2007).
Where two headings read alike, the source gives them in different places.

Assays:
[1] = tested on: U87-MG a human glioma; assay: Proliferation assay, U87-MG; format: cell-based
Source text: (§1) Cell Culture: Human umbilical vein endothelial cells (HUVEC) were obtained from Clonetics (San Diego, Calif.), MCF7 cells were the kind gift of Dr. Dorraya El Ashry (University of Michigan), MDA-MB-231 a human breast carcinoma, PC3 a human prostate carcinoma, and U87-MG a human glioma, cell lines were obtained from ATCC. HUVEC cultures were maintained for up to 5 passages in EGM containing bovine brain extract (Clonetics) and 1× antibiotic-antimycotic (BioWhittaker, Walkersville, Md.). MDA-MB-231, PC3, U87-MG and MCF-7 cells were maintained in DMEM/F12 (1:1) containing 10% (v/v) fetal bovine serum (Hyclone Laboratories, Logan, Utah) and 1× antibiotic-antimycotic. MCF7 cells were used between passage 60 and passage 100.
(§2) Proliferation Assays: Proliferation was measured by cell counting using a Coulter Zl cell counter (Coulter Corporation, Hialeah, Fla.) or by evaluation of DNA synthesis. Each condition was done in triplicate and experiments were repeated at least twice. To determine estrogenicity of the analogs, MCF7 estrogen-dependent proliferation assays were performed. The cells were seeded in complete media at 10,000 cells/well in a 24 well plate after allowing the cells to adhere overnight and the seeding density was determined by cell counts. Cells were washed with PBS (37° C.) and starved by placing them in IMEM-phenol red free media containing 2% charcoal-dextran fetal bovine-stripped serum (Valley Biomedical, Winchester, Va.) and 1× antibiotic-antimycotic. After 3 days of starvation, cells were treated with or without increasing concentrations of compounds, replacing the media every 2-3 days and counted after 7 days of treatment. In order to ensure that only the added test compounds stimulated growth, experiments were performed only with cell cultures that duplicated less than once during the starvation period. Values are expressed as MCF7 stimulation index (SI) relative to 2ME2 (defined as 1.00). A value less than 1.00 indicates reduced estrogenicity. Estradiol is used as a positive control.
(§3) To determine anti-tumor and anti-angiogenic activities of the analogs, proliferation assays were performed by evaluating detection of DNA synthesis by use of the 5-bromo-2′-deoxyuridine (BrdU) cell proliferation colorimetric ELISA kit from Roche (Indianapolis, Ind.) according to the manufacturer's instructions. For BrdU assays, the cells were seeded at 1,000 cells/well (MDA-MB-231, anti-tumor activity) or 3,000 cells/well (HUVEC, anti-angiogenic activity) in a 96 well plate, allowed to attach overnight and then exposed to the compound for 48 h. IC50 value is the concentration at which cell proliferation is inhibited by 50%.
(§4) Antiproliferative activity of the NCEs were assessed in tumor cell lines (MDA-MB-231 a breast carcinoma, PC3 a prostate carcinoma and U87-MG a glioma) and endothelial cells (HUVEC).

[2] = tested on: PC3 a human prostate carcinoma; assay: Proliferation assay, PC3; format: cell-based
Source text: as §1, §2, §3, §4

[3] = tested on: human hepatocyte suspensions; assay: Hepatocyte incubations, human; format: in vitro ADME; details: human hepatocytes, NR = no reaction
Method: (§5) Hepatocyte Incubations: An in vitro measure of metabolism using cells from rat and human liver. Rat and human hepatocyte suspensions (10^6 cells per mL of serum-free (H)CL15 culture medium) were incubated with 2 concentrations (1 and 5 μM) of each of the compounds. Stock solutions were prepared in DMSO, and were further diluted in culture medium to the final test concentrations. 7-Ethoxycoumarin (7-EC) were included as a positive control substrate for P450. A 0.1 M 7-EC stock solution was prepared in DMSO, and the final assay concentration was 100 μM. The reactions were initiated by the addition of the substrates, incubated at 37° C., and terminated after 0, 60 and 120 minutes by addition of acetonitrile. The positive 7-EC control reactions were stopped with perchloric acid or ZnSO4 and BaOH after 60-minutes of incubation. The reaction mixture was centrifuged to remove the cell debris, and the supernatant was used for subsequent analysis by HPLC/LC-MS. If necessary, the supernatants were flash frozen in liquid N2 and stored at −70° C. until further analysis. HPLC was used to analyze product formation from 7-EC. Analyses to determine the concentration of the test compounds were carried out using reverse phase HPLC with tandem mass spectrometric detection (LC-MS/MS). Samples were analyzed to measure the disappearance of parent compound over time. The rate of metabolism was estimated by fitting a curve to the data for each concentration against time using GraphPad Prism Version 3.02 software.

[4] = tested on: MCF7 cells; assay: MCF7 estrogen-dependent proliferation assay (estrogenicity); format: cell-based, human; details: stimulation index, 2ME2 defined as 1.00; less than 1.00 = reduced estrogenicity; 7 days of treatment
Source text: as §1
as §2, with “[…].” for “Values are expressed as MCF7 stimulation index (SI) relative to 2ME2 (defined as 1.00). A value less than 1.00 indicates reduced estrogenicity.”

[5] = tested on: MDA-MB-231 a human breast carcinoma; assay: BrdU proliferation assay, MDA-MB-231 (anti-tumor activity); format: cell-based
Source text: as §1, §2, §3, §4

[6] = tested on: Human umbilical vein endothelial cells (HUVEC); assay: BrdU proliferation assay, HUVEC (anti-angiogenic activity); format: cell-based
Source text: as §1, §2, §3, §4

[7] = tested on: Rat hepatocyte suspensions; assay: Hepatocyte incubations, rat; format: in vitro ADME; details: rat hepatocytes, NR = no reaction
Method: as §5

[8] = Rat pharmacokinetics after oral delivery of 10 mg/kg, cyclodextrin formulation; format: in vivo; details: oral 10 mg/kg, female Sprague Dawley rats
Method: Pharmokinetics of the NCEs were assessed by LC/MS after oral delivery of 10 mg/kg to female Sprague Dawley rats using a cyclodextrin formulation.

[9] = Example 2, Table VII, read-out: IC50 value (μM) U87-MG
[10] = Example 2, Table VII, read-out: IC50 value (μM) PC3
[11] = Example 2, Table VII, read-out: IC50 value (μM) MDA-MB-231
[12] = Example 2, Table VII, read-out: IC50 value (μM) HUVEC

| IC50 [1, 9] [µM] | AUCall [8] [ng·h/mL] | Cmax [8] [ng/mL] | Tmax [8] [min] | T½ [8] [min] | IC50 [2, 10] [µM] | IC50 [5, 11] [µM] | Compound | IC50 [6, 12] [µM] | other results |
| --- | --- | --- | --- | --- | --- | --- | --- | --- | --- |
| – | – | – | – | – | – | – | COc1cc2c(cc1O)CC[C@@H]1[C@@H]2CC[C@]2(C)[C@@H](O)CC[C@@H]12 [Compound 1, 2-Methoxyestradiol, reference compound] | – | IC50 ([1]; Homo sapiens, U-87 MG, proliferation, read-out: U87-MG (IC50 μM)): 1.48 ± 0.62 µM; IC50 ([2]; Homo sapiens, proliferation, read-out: PC3 (IC50 μM)): 1.08 ± 0.5 µM; Hepatocyte Human 60/120′ (1 uM): 60′ ([3]; 1 uM, 60 minutes): 0/0; Hepatocyte Human 60/120′ (1 uM): 120′ ([3]; 1 uM, 120 minutes): 0/0; Hepatocyte Human 60/120′ (5 uM): 60′ ([3]; 5 uM, 60 minutes): 20; Hepatocyte Human 60/120′ (5 uM): 120′ ([3]; 5 uM, 120 minutes): 0; MCF7 SI Relative to 2ME2 [4]: 1.00; IC50 ([5]; Homo sapiens, MDA-MB-231, BrdU DNA synthesis, 48 h exposure, read-out: MDA-MB-231 (IC50 μM)): 0.69 ± 0.14 µM; IC50 ([6]; Homo sapiens, HUVEC, BrdU DNA synthesis, 48 h exposure, read-out: HUVEC (IC50 μM)): 0.68 ± 0.15 µM; Hepatocyte Rat 60/120′ (1 uM): 60′ ([7]; 1 uM, 60 minutes): 0/0; Hepatocyte Rat 60/120′ (1 uM): 120′ ([7]; 1 uM, 120 minutes): 0/0; Hepatocyte Rat 60/120′ (5 uM): 60′ ([7]; 5 uM, 60 minutes, unit assumed): 39%; Hepatocyte Rat 60/120′ (5 uM): 120′ ([7]; 5 uM, 120 minutes, unit assumed): 24% |
| 1.27 ± 0.44 | 4657 | 1379 | 60 | 97.8 | 1.91 ± 0.36 | 1.21 ± 0.47 | COc1cc2c(cc1C(N)=O)CC[C@@H]1[C@@H]2CC[C@@]2(C)[C@H]1CCC21OCCO1 [ENMD-1565, 17-(1,3-dioxolane)-2-methoxyestra-1,3,5(10)-triene-3 carboxamide] | 0.91 | – |
| 0.71 ± 0.09 | 1442 | 665 | 30 | 53.4 | 1.14 ± 0.45 | 0.89 ± 0.21 | COc1cc2c(cc1C(N)=O)CC[C@@H]1[C@@H]2CC[C@]2(C)[C@@H](OC)CC[C@@H]12 [ENMD-1756, 2,17β-(bismethoxy)estra-1,3,5(10)-triene-3-carboxamide] | 0.62 | – |
